Laboratory results reported in patent publication US10759781B2, “Substituted guanidine derivatives” (UBE INDUSTRIES, LTD., priority 2015, dated 2020).

What was measured:
[1] = system: Human normal glomerular microvascular endothelial cells; assay type: cell-based; conditions: 2 days, 100 nM
Method: The Cytotoxicity Inhibition Test in Human Normal Glomerular Microvascular Endothelial Cells
(§1) Human normal glomerular microvascular endothelial cells were plated at 6000 cells/well in a collagen-coated 96-well culture plate. After one day of culture, the medium at each well was completely removed by aspiration and replaced with 50 μL of the compound solution diluted with the basal medium. The basal medium containing 0.1% DMSO was added to control wells. Following, the plate was incubated in CO2 incubator for 30 minutes. Fifty microliter of 2 mM methylamine diluted with the basal medium was added (final concentration 1 mM) to each negative control well (0% inhibition) as well as the compound-containing well, and 50 μL of the basal medium was added to each positive control well (100% inhibition). The plate was incubated in CO2 incubator for 2 days. Ten microliter of CCK-8 was added to each well and the mixtures were incubated in a plate incubator at 37° C. for approximately 2 hours after stirring with a plate shaker. The absorbance of the mixtures at 450 nm was measured with a multiplate reader. The cytotoxicity inhibition ratio of the compound was calculated from the following equation. Inhibition ratio={[Average absorbance of the compound-containing wells]−[Average absorbance of negative control wells]}/{[Average absorbance of positive control wells]−[Average absorbance of negative control wells]}×100

[2] = system: Human normal hepatic sinusoid-like microvascular endothelial cells; assay type: cell-based; conditions: 2 days, 300 nM
Method: The Cytotoxicity Inhibition Test in Human Normal Hepatic Sinusoid-Like Microvascular Endothelial Cells
as §1, with “hepatic sinusoid-like” for “glomerular”

Rat Plasma VAP-1 = biological target: T1, Rat Plasma VAP-1 (Rattus norvegicus, UniProt O08590); assay: (Ex vivo) rat plasma VAP-1 inhibition test after oral administration of the compound; assay type: in vivo; conditions: 3 hours after oral administration, SD male rats, read-out: inhibition ratio (plasma VAP-1, ex vivo)
T1 construct: from tissue; host or cells: plasma of SD male rats (7-12 weeks old) after oral dosing
T1 sequence (O08590 28-763 limits assumed): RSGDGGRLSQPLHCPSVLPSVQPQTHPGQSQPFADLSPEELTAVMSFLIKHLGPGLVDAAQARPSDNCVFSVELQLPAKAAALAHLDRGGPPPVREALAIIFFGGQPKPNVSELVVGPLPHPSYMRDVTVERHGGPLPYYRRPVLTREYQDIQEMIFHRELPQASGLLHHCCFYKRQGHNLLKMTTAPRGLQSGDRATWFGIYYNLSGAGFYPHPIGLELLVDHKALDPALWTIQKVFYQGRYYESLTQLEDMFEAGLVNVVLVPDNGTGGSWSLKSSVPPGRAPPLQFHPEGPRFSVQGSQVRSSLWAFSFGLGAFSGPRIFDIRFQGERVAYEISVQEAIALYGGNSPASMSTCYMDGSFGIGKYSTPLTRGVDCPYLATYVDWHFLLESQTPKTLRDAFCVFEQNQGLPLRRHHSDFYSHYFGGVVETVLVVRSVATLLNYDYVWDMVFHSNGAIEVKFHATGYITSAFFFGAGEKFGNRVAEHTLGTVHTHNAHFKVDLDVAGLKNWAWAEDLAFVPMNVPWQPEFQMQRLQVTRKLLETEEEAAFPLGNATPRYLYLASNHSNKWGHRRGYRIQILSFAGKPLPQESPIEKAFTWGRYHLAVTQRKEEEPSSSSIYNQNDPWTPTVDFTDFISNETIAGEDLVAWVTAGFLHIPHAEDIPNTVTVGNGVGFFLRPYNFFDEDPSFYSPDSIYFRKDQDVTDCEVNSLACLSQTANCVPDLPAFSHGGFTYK
How it was run: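 Male SD rats, 7–12 weeks, non-fasted, dosed orally at 0.3–10 mg/kg; jugular blood taken predose and 3, 8 and 24 h after dosing. Plasma incubated with 2.5 μM 14C-benzylamine for 3 h at 37 °C; extracted product counted by scintillation. Inhibition expressed relative to each animal's predose plasma activity.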

Human VAP-1 enzyme = biological target: T2, Human VAP-1 enzyme (Homo sapiens, UniProt Q16853); assay: Human VAP-1 enzyme inhibition test; assay type: biochemical; conditions: 1 h; compound 30 nM; 14C-benzylamine 100 μM; read-out: inhibition ratio (human VAP-1 enzyme)
T2 construct: purchased R&D Systems, Inc
T2 sequence (Q16853 1-763): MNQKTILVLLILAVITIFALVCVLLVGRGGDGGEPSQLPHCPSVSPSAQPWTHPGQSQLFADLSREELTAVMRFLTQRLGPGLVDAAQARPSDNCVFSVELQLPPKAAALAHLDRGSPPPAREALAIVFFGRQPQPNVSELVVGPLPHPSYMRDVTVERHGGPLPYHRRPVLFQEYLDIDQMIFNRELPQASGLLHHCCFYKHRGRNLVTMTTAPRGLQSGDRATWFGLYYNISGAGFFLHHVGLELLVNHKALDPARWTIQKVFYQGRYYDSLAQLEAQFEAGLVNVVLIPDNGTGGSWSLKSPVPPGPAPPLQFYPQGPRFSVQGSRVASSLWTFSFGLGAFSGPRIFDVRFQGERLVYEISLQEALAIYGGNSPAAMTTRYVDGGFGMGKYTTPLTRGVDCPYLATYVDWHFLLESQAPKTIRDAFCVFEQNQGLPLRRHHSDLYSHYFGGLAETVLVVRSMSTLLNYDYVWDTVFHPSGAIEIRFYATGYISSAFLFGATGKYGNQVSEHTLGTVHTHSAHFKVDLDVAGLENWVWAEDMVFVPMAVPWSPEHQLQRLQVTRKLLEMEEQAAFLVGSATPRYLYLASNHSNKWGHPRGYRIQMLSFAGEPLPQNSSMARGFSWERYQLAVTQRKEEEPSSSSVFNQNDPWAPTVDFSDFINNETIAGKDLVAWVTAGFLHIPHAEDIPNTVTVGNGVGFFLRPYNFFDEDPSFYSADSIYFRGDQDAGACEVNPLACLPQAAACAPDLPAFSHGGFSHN
How it was run: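 Activity measured as radioactive oxidation product of 14C-benzylamine (100 μM final), extracted with toluene/ethyl acetate after citric acid stop and scintillation-counted. Enzyme (recombinant human VAP-1) first exposed to compound 20 min at room temperature, reaction then 1 h at 37 °C. Percent inhibition versus DMSO control.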

in vivo = assay: in vivo; parameters: species or system SD rats; conditions: SD, rat, po, 3 mg/kg
Method: Rat Pharmacokinetic (PK) Study (Concentration of Compound in Plasma after Oral Administration)
Seven to eight week old SD rats (weighing 180 to 250 g) were orally administered with a suspension of the compound in 0.5 W/V % methylcellulose 400 solution. Under anesthesia, the blood was collected from the jugular vein in EDTA tubes at 0.25, 0.5, 1, 2, 4, 6, 8 and 24 hours after the administration of the compound. The blood was centrifuged at 4° C. and 6000 g for 3 minutes to give plasma. Acetonitrile was added to the plasma, and the mixture was stirred with a shaker at 750 rpm for 3 minutes and was deproteinized by centrifugation at 3700 rpm for 2 minutes. Thus, the obtained sample was analyzed by LC/MS under the following conditions.
The concentration of the compound in the plasma at each blood sampling time was determined by an internal standard method, and AUC all (Area Under Curve) was calculated by a trapezoidal method.
The following LC and MS systems were used for measurement.
LC: CBM 30 series manufactured by Shimadzu Corporation
Column: Phenomenex Kinetex C18 (50×2.1 mm, 2.6 μm)
Column temperature: 40° C.
Mobile phase A: 0.1% aqueous formic acid solution, mobile phase B: 0.1% formic acid,
50% acetonitrile/methanol mixture
MS: 3200 manufactured by SCIEX

inhibition in vivo at 0.3 mg/kg (Rat Plasma VAP-1) [%]	inhibition at 0.03 µM (Human VAP-1 enzyme) [%]	AUC (in vivo) [ng·h/mL]	SMILES	cytotoxicity inhibition ratio [1] [%]	cytotoxicity inhibition ratio [2] [%]
≥ 50			CCON=C1CN(c2ncc(-c3cccc(COC(=O)NC(=N)N)c3F)cn2)C1 [Example 2, 3-{2-[3-(Ethoxyimino)azetidin-1-yl]pyrimidin-5-yl}-2-fluorobenzyl carbamimidoylcarbamate]	≥ 50	≥ 50
≥ 50	≥ 50		CC(=O)OC1CC(ON=C2CN(c3ncc(-c4cccc(COC(=O)NC(=N)N)c4F)cn3)C2)C1 (stereo not shown) [Example 133, 3-[({1-[5-(3-{[(Carbamimidoylcarbamoyl)oxy]methyl}-2-fluorophenyl)pyrimidin-2-yl]azetidin-3-ylidene}amino)oxy]cyclobutyl acetate]	≥ 50	≥ 50
≥ 50			N=C(N)NC(=O)OCc1cccc(-c2cnc(N3CC(=NOCCF)C3)nc2)c1F [Example 5, 2-Fluoro-3-(2-{3-[(2-fluoroethoxy)imino]azetidin-1-yl}pyrimidin-5-yl)benzyl carbamimidoylcarbamate]	≥ 50	≥ 50
≥ 50	≥ 50		CS(=O)(=O)N1CC(ON=C2CN(c3ncc(-c4cccc(COC(=O)NC(=N)N)c4F)cn3)C2)C1 [Example 141, 2-Fluoro-3-{2-[3-({[1-(methylsulfonyl)azetidin-3-yl]oxy}imino)azetidin-1-yl]pyrimidin-5-yl}benzyl carbamimidoylcarbamate]	≥ 50	≥ 50
≥ 50	≥ 50		[2H]C([2H])([2H])ON=C1CN(c2ncc(-c3cccc(COC(=O)NC(=N)N)c3F)cn2)C1 [Example 3, 2-Fluoro-3-(2-{3-[(methoxy-d3)imino]azetidin-1-yl}pyrimidin-5-yl)benzyl carbamimidoylcarbamate]	≥ 50	≥ 50
≥ 50		≥ 1000	CON=C1CN(c2ncc(-c3cccc(COC(=O)NC(=N)N)c3F)cn2)C1 [Example 1, 2-Fluoro-3-{2-[3-(methoxyimino)azetidin-1-yl]pyrimidin-5-yl}benzyl carbamimidoylcarbamate]	≥ 50	≥ 50
≥ 50	≥ 50		N=C(N)NC(=O)OCc1cccc(-c2cnc(N3CC(=NOC4COC4)C3)nc2)c1F [Example 144, 2-Fluoro-3-(2-{3-[(oxetan-3-yloxy)imino]azetidin-1-yl}pyrimidin-5-yl)benzyl carbamimidoylcarbamate]	≥ 50	≥ 50
≥ 50	≥ 50		N=C(N)NC(=O)OCc1cccc(-c2cnc(N3CCC(=NOCCN4C(=O)CCC4=O)CC3)nc2)c1F [Example 177, 3-[2-(4-{[2-(2,5-Dioxopyrrolidin-1-yl)ethoxy]imino}piperidin-1-yl)pyrimidin-5-yl]-2-fluorobenzyl carbamimidoylcarbamate]		
≥ 50	≥ 50		CC(O)CON=C1CCN(c2ncc(-c3cccc(COC(=O)NC(=N)N)c3F)cn2)CC1 (stereo not shown) [Example 90, 2-Fluoro-3-(2-{4-[(2-hydroxypropoxy)imino]piperidin-1-yl}pyrimidin-5-yl)benzyl carbamimidoylcarbamate]		

SMILES	inhibition in vivo at 0.3 mg/kg (Rat Plasma VAP-1) [%]	inhibition at 0.03 µM (Human VAP-1 enzyme) [%]	AUC (in vivo) [ng·h/mL]	cytotoxicity inhibition ratio [1] [%]	cytotoxicity inhibition ratio [2] [%]
N=C(N)NC(=O)OCc1cccc(-c2cnc(N3CC(=NOC4CC(O)C4)C3)nc2)c1F (stereo not shown) [Example 134, 2-Fluoro-3-(2-{3-[(3-hydroxycyclobutoxy)imino]azetidin-1-yl}pyrimidin-5-yl)benzyl carbamimidoylcarbamate]	≥ 50	≥ 50		≥ 50	≥ 50
